Measurements reported in patent publication US6914045B2, “Glycopeptide antibiotics” (Wyeth Holdings Corporation, priority 2001, dated 2005).
Values after ≈ are worked out from the molar mass of the structure shown.

Columns and labels:
Escherichia coli = assay: in vitro antibacterial evaluation, MIC by broth dilution; format: cell-based; conditions: 18 hours at 35° C.
How it was run: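 Broth dilution MIC per NCCLS M7-A2 in Mueller-Hinton II medium, inoculum 5×10^5 CFU/mL, antibiotic range 64-0.06 μg/mL. MIC taken as lowest concentration inhibiting growth.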

Enterococcus sp. = assay: as above; format: cell-based; conditions: broth dilution, 18 hours at 35° C.
How it was run: (§1)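 Broth dilution per NCCLS M7-A2 in Mueller-Hinton II medium, inoculum 5×10^5 CFU/mL, antibiotic range 64-0.06 μg/mL. MIC taken as lowest concentration inhibiting growth; Gram-positive panel includes recent clinical isolates resistant to methicillin, penicillin and/or vancomycin.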

Streptococcus sp. = assay: as above; format: cell-based; conditions: broth dilution, 18 hours at 35° C.
How it was run: as §1

Staphylococcus sp. = assay: as above; format: cell-based; conditions: broth dilution, 18 hours at 35° C.
How it was run: as §1

[1] = test system: Staphylococcus aureus-SMITH (GC 4543); assay: acute lethal infection in mice; format: in vivo; conditions: acute lethal infection, female CD-1 mice, intraperitoneal challenge, intravenous 30 min. after infection, 7 day survival
How it was run: (§2)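 Intraperitoneal challenge of female CD-1 mice with a bacterial dose lethal to untreated animals within 24-48 hr; single iv treatment 30 min later, 5 mice per dose level. Survival is scored at day 7 and pooled from three experiments to give the median effective dose.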

[2] = test system: Enterococcus faecalis (GC 2246); assay: acute lethal infection in mice; format: in vivo; conditions: female CD-1 mice, intraperitoneal challenge, intravenous 30 min. after infection, 7 day survival
How it was run: as §2

## CC(c1ccccc1)C1NC(=O)CNC(=O)C(CO)NC(=O)C(C(O)C2CNC(=N)N2C2OC(CO)C(O)C(O)C2O)NC(=O)C(C(O)C2CNC(=N)N2)NC(=O)C(Cc2ccc(OC3OC(CO)C(OC4OC(COC(=O)C(c5ccccc5)c5ccccc5)C(O)C(O)C4O)C(O)C3O)cc2)NC1=O (stereo not drawn) [Example 96c, Cyclo[glycyl-β-methylphenylalanyl-O-[4-O-[6-O-(diphenylacetyl)hexolpyranosyl]hexopyranosyl]tyrosyl-3-(2-iminoimidazolidin-4-yl)seryl-3-(3-hexopyranosyl-2-iminoimidazolidin-4-yl)serylseryl]]
Escherichia coli
  MIC Escherichia coli (ATCC 25922): 64 µg/mL (≈ 43 µM)
Enterococcus sp.; Enterococcus avium (GC 4558)
  MIC Enterococcus avium (GC 4558): 2 µg/mL (≈ 1.34 µM)
Enterococcus sp.; Enterococcus faecalis (ATCC 29212)
  MIC Enterococcus faecalis (ATCC 29212): 2 µg/mL (≈ 1.34 µM)
Enterococcus sp.; Enterococcus faecalis (GC 4552)
  MIC Enterococcus faecalis (GC 4552): 2 µg/mL (≈ 1.34 µM)
Enterococcus sp.; Enterococcus faecalis (GC 4553)
  MIC Enterococcus faecalis (GC 4553): 2 µg/mL (≈ 1.34 µM)
Enterococcus sp.; Enterococcus faecalis (GC 4554)
  MIC Enterococcus faecalis (GC 4554): 2 µg/mL (≈ 1.34 µM)
Enterococcus sp.; Enterococcus faecium (GC 2243)
  MIC Enterococcus faecium (GC 2243): 2 µg/mL (≈ 1.34 µM)
Enterococcus sp.; Enterococcus faecium (GC 4556)
  MIC Enterococcus faecium (GC 4556): 2 µg/mL (≈ 1.34 µM)
Enterococcus sp.; Enterococcus faecium (GC 4557)
  MIC Enterococcus faecium (GC 4557): 1 µg/mL (≈ 0.671 µM)
Enterococcus sp.
  MIC Enterococcus avium (GC 4558): 2 µg/mL (≈ 1.34 µM)
  MIC Enterococcus faecalis (ATCC 29212): 2 µg/mL (≈ 1.34 µM)
  MIC Enterococcus faecalis (GC 2242): 1 µg/mL (≈ 0.671 µM)
  MIC Enterococcus faecalis (GC 4552): 2 µg/mL (≈ 1.34 µM)
  MIC Enterococcus faecalis (GC 4553): 2 µg/mL (≈ 1.34 µM)
  MIC Enterococcus faecalis (GC 4554): 2 µg/mL (≈ 1.34 µM)
  MIC Enterococcus faecium (GC 2243): 2 µg/mL (≈ 1.34 µM)
  MIC Enterococcus faecium (GC 4556): 2 µg/mL (≈ 1.34 µM)
  MIC Enterococcus faecium (GC 4557): 1 µg/mL (≈ 0.671 µM)
Enterococcus sp.; strain GC 2242
  MIC Enterococcus faecalis (GC 2242): 1 µg/mL (≈ 0.671 µM)
Streptococcus sp.
  MIC Streptococcus agalactiae (GC 4564): <0.06 µg/mL
  MIC Streptococcus pneumoniae (GC 4565): <0.06 µg/mL
  MIC Streptococcus pyogenes (ID-3187): <0.06 µg/mL
Streptococcus sp.; strain GC 4564
  MIC Streptococcus agalactiae (GC 4564): <0.06 µg/mL
Streptococcus sp.; strain GC 4565
  MIC Streptococcus pneumoniae (GC 4565): <0.06 µg/mL
Streptococcus sp.; strain ID-3187
  MIC Streptococcus pyogenes (ID-3187): <0.06 µg/mL
Staphylococcus sp.
  MIC Coagulase Negative Staphylococcus (GC 4547): 1 µg/mL (≈ 0.671 µM)
  MIC Coagulase Negative Staphylococcus (GC 4548): 0.25 µg/mL (≈ 0.168 µM)
  MIC Coagulase Negative Staphylococcus (GC 4549): 1 µg/mL (≈ 0.671 µM)
  MIC Coagulase Negative Staphylococcus (GC 4551): 1 µg/mL (≈ 0.671 µM)
  MIC Coagulase Negative Staphylococcus (ID-3941): 0.5 µg/mL (≈ 0.336 µM)
  MIC Staphylococcus aureus-SMITH (GC 4543): 0.5 µg/mL (≈ 0.336 µM)
  MIC Staphylococcus haemolyticus (GC 4546): 0.5 µg/mL (≈ 0.336 µM)
Staphylococcus sp.; strain ATCC 29213
  MIC Staphylococcus aureus (ATCC 29213): 1 µg/mL (≈ 0.671 µM)
Staphylococcus sp.; strain GC 1131
  MIC Staphylococcus aureus (GC 1131): 0.5 µg/mL (≈ 0.336 µM)
Staphylococcus sp.; strain GC 4541
  MIC Staphylococcus aureus (GC 4541): 0.5 µg/mL (≈ 0.336 µM)
Staphylococcus sp.; strain GC 4542
  MIC Staphylococcus aureus (GC 4542): 1 µg/mL (≈ 0.671 µM)
Staphylococcus sp.; strain GC 4543
  MIC Staphylococcus aureus-SMITH (GC 4543): 0.5 µg/mL (≈ 0.336 µM)
Staphylococcus sp.; strain GC 4544
  MIC Staphylococcus aureus (GC 4544): 1 µg/mL (≈ 0.671 µM)
Staphylococcus sp.; strain GC 4545
  MIC Staphylococcus aureus (GC 4545): 0.5 µg/mL (≈ 0.336 µM)
Staphylococcus sp.; strain GC 4546
  MIC Staphylococcus haemolyticus (GC 4546): 0.5 µg/mL (≈ 0.336 µM)
Staphylococcus sp.; strain GC 4547
  MIC Coagulase Negative Staphylococcus (GC 4547): 1 µg/mL (≈ 0.671 µM)
Staphylococcus sp.; strain GC 4548
  MIC Coagulase Negative Staphylococcus (GC 4548): 0.25 µg/mL (≈ 0.168 µM)
Staphylococcus sp.; strain GC 4549
  MIC Coagulase Negative Staphylococcus (GC 4549): 1 µg/mL (≈ 0.671 µM)
Staphylococcus sp.; strain GC 4551
  MIC Coagulase Negative Staphylococcus (GC 4551): 1 µg/mL (≈ 0.671 µM)
Staphylococcus sp.; strain ID-3941
  MIC Coagulase Negative Staphylococcus (ID-3941): 0.5 µg/mL (≈ 0.336 µM)
[1]
  median effective dose (ED50), Staphylococcus aureus-SMITH (GC 4543): 0.29 mg/kg
[2]
  median effective dose (ED50), Enterococcus faecalis (GC 2246): 5.2 mg/kg
